# Results published in ChEMBL document CHEMBL5131467, “Multivalent peptide dendrimers inhibit the fusion of viral-cellular membranes and the cellular NF-κB signaling pathway” (Eur J Med Chem, 2022).
# Where a SMILES comes first, the peptide text is derived from it. Bridges are numbered along the chain shown (N, C = ends). Roman numbers before positions name the chains, in order. Side-chain parts run from the residue outwards. [ ]: non-standard residue; d: D form. The star is where a group is joined. ξ: configuration not given here. Phenylacetyl(4-Ph) = O=C(Cc1ccc(-c2ccccc2)cc1)*; Fmoc = O=C(OCC1c2ccccc2-c2ccccc21)*; Palmitoyl = CCCCCCCCCCCCCCCC(=O)*; ξW = NC(Cc1c[nH]c2ccccc12)C(=O)O; Lauroyl = CCCCCCCCCCCC(=O)*; Nonanoyl = CCCCCCCCC(=O)*; Octanoyl = CCCCCCCC(=O)*; ξK = NCCCCC(N)C(=O)O
# Experiments:
# Influenza A virus [1] = experiment: Antiviral activity against Influenza A virus (A/Puerto Rico/8/1934(H1N1)) infected in MDCK cells assessed as reduction in virus induced cytopathic effect pre-treated with virus followed by cell infection for 1 hr by MTT assay; type: functional, organism-based
# [2] = Cytotoxicity against MDCK cells incubated for 1 hr by MTT assay; type: toxicity, cell-based, Canis lupus familiaris; settings: dog
# [3] = Cytotoxicity against MDCK cells by CCK-8 assay; type: toxicity, cell-based, Canis lupus familiaris; settings: dog
# [4] = Selectivity index, ratio of CC50 for MDCK cells to IC50 antiviral activity against Influenza A virus (A/Puerto Rico/8/1934(H1N1)) infected in MDCK cells assessed as reduction in virus induced cytopathic effect pre-treated with virus; type: toxicity, cell-based; settings: dog, read-out: Selectivity Index
# Influenza A virus [5] = experiment: Antiviral activity against Influenza A virus (A/Puerto Rico/8/1934(H1N1)) infected in MDCK cells assessed as reduction in virus induced cytopathic effect pretreated with compound incubated for 1 hrs by MTT assay; type: functional, organism-based
# Influenza A virus [6] = experiment: Antiviral activity against Influenza A virus (A/Puerto Rico/8/1934(H1N1)) infected in MDCK cells assessed as reduction in virus induced cytopathic effect during infection incubated for 1 hr by MTT assay; type: functional, organism-based
# Influenza A virus [7] = experiment: Antiviral activity against Influenza A virus (A/Puerto Rico/8/1934(H1N1)) infected in MDCK cells assessed as reduction in virus induced cytopathic effect after infection incubated for 1 hr by MTT assay; type: functional, organism-based
SMILES,IC50 (Influenza A virus [1]),CC50 at 1 h [2],CC50 [3],selectivity ratio [4],IC50 (Influenza A virus [5]),IC50 (Influenza A virus [6]),IC50 (Influenza A virus [7])
NCCCC[C@H](NC(=O)[C@H](Cc1c[nH]c2ccccc12)NC(=O)[C@H](CCCCN)NC(=O)[C@H](CCCCN)NC(=O)OCC1c2ccccc2-c2ccccc21)C(=O)O (Fmoc-KKWK-OH),4.02 µM,> 200 µM,200 µM,–,–,–,–
NCCCC[C@H](NC(=O)OCC1c2ccccc2-c2ccccc21)C(=O)N[C@@H](Cc1c[nH]c2ccccc12)C(=O)N[C@@H](CCCCN)C(=O)N[C@@H](CCCCN)C(=O)NCCCC[C@H](NC(=O)[C@H](CCCCN)NC(=O)[C@H](CCCCN)NC(=O)[C@H](Cc1c[nH]c2ccccc12)NC(=O)[C@H](CCCCN)NC(=O)OCC1c2ccccc2-c2ccccc21)C(=O)NCCCC[C@H](NC(=O)[C@H](CCCCNC(=O)[C@H](CCCCN)NC(=O)[C@H](CCCCN)NC(=O)[C@H](Cc1c[nH]c2ccccc12)NC(=O)[C@H](CCCCN)NC(=O)OCC1c2ccccc2-c2ccccc21)NC(=O)[C@H](CCCCN)NC(=O)[C@H](CCCCN)NC(=O)[C@H](Cc1c[nH]c2ccccc12)NC(=O)[C@H](CCCCN)NC(=O)OCC1c2ccccc2-c2ccccc21)C(=O)NCC(=O)O (I: Fmoc-KWKKK([Lys-Lys-Trp-Lys-Fmoc])KG-OH / II: Fmoc-KWKKK([Lys-Lys-Trp-Lys-Fmoc]); amide I:6-II:C),0.62 µM,11.7 µM,–,18.8,0.47 µM,1.16 µM,5 µM
NCCCC[C@H](NC(=O)[C@H](Cc1c[nH]c2ccccc12)NC(=O)[C@H](CCCCN)NC(=O)[C@@H](N)CCCCN)C(=O)NCCCC[C@H](NC(=O)[C@H](CCCCN)NC(=O)[C@H](Cc1c[nH]c2ccccc12)NC(=O)[C@H](CCCCN)NC(=O)[C@@H](N)CCCCN)C(=O)NCCCC[C@H](NC(=O)[C@H](CCCCNC(=O)[C@H](CCCCN)NC(=O)[C@H](Cc1c[nH]c2ccccc12)NC(=O)[C@H](CCCCN)NC(=O)[C@@H](N)CCCCN)NC(=O)[C@H](CCCCN)NC(=O)[C@H](Cc1c[nH]c2ccccc12)NC(=O)[C@H](CCCCN)NC(=O)[C@@H](N)CCCCN)C(=O)NCC(=O)O (I: H-KKWKK([Lys-Trp-Lys-Lys])KG-OH / II: H-KKWKK([Lys-Trp-Lys-Lys]); amide I:6-II:C),> 5 µM,150 µM,–,–,> 10 µM,> 5 µM,–
CCCCCCCCCCCC(=O)N[C@@H](CCCCN)C(=O)N[C@@H](CCCCN)C(=O)N[C@@H](Cc1c[nH]c2ccccc12)C(=O)N[C@@H](CCCCN)C(=O)NCCCC[C@H](NC(=O)[C@H](CCCCN)NC(=O)[C@H](Cc1c[nH]c2ccccc12)NC(=O)[C@H](CCCCN)NC(=O)[C@H](CCCCN)NC(=O)CCCCCCCCCCC)C(=O)NCCCC[C@H](NC(=O)[C@H](CCCCNC(=O)[C@H](CCCCN)NC(=O)[C@H](Cc1c[nH]c2ccccc12)NC(=O)[C@H](CCCCN)NC(=O)[C@H](CCCCN)NC(=O)CCCCCCCCCCC)NC(=O)[C@H](CCCCN)NC(=O)[C@H](Cc1c[nH]c2ccccc12)NC(=O)[C@H](CCCCN)NC(=O)[C@H](CCCCN)NC(=O)CCCCCCCCCCC)C(=O)NCC(=O)O (I: Lauroyl-KKWKK([Lys-Trp-Lys-Lys-Lauroyl])KG-OH / II: Lauroyl-KKWKK([Lys-Trp-Lys-Lys-Lauroyl]); amide I:6-II:C),0.28 µM,5.47 µM,–,19.7,0.31 µM,0.43 µM,> 5 µM
CCCCCCCCCCCC(=O)N[C@@H](CCCCN)C(=O)N[C@@H](Cc1c[nH]c2ccccc12)C(=O)N[C@@H](CCCCN)C(=O)N[C@@H](CCCCN)C(=O)NCCCC[C@H](NC(=O)[C@H](CCCCN)NC(=O)[C@H](CCCCN)NC(=O)[C@H](Cc1c[nH]c2ccccc12)NC(=O)[C@H](CCCCN)NC(=O)CCCCCCCCCCC)C(=O)NCCCC[C@H](NC(=O)[C@H](CCCCNC(=O)[C@H](CCCCN)NC(=O)[C@H](CCCCN)NC(=O)[C@H](Cc1c[nH]c2ccccc12)NC(=O)[C@H](CCCCN)NC(=O)CCCCCCCCCCC)NC(=O)[C@H](CCCCN)NC(=O)[C@H](CCCCN)NC(=O)[C@H](Cc1c[nH]c2ccccc12)NC(=O)[C@H](CCCCN)NC(=O)CCCCCCCCCCC)C(=O)NCC(=O)O (I: Lauroyl-KWKKK([Lys-Lys-Trp-Lys-Lauroyl])KG-OH / II: Lauroyl-KWKKK([Lys-Lys-Trp-Lys-Lauroyl]); amide I:6-II:C),0.34 µM,1.88 µM,–,5.5,0.38 µM,0.17 µM,> 5 µM
CCCCCCCCC(=O)NC(CCCCN)C(=O)NC(Cc1c[nH]c2ccccc12)C(=O)NC(CCCCN)C(=O)NC(CCCCN)C(=O)N[C@@H](CCCCNC(=O)[C@H](CCCCN)NC(=O)[C@H](CCCCN)NC(=O)[C@H](Cc1c[nH]c2ccccc12)NC(=O)[C@H](CCCCN)NC(=O)CCCCCCCC)C(=O)NCCCC[C@H](NC(=O)[C@H](CCCCNC(=O)[C@H](CCCCN)NC(=O)[C@H](CCCCN)NC(=O)[C@H](Cc1c[nH]c2ccccc12)NC(=O)[C@H](CCCCN)NC(=O)CCCCCCCC)NC(=O)[C@H](CCCCN)NC(=O)[C@H](CCCCN)NC(=O)[C@H](Cc1c[nH]c2ccccc12)NC(=O)[C@H](CCCCN)NC(=O)CCCCCCCC)C(=O)NCC(=O)O (stereo partly drawn) (I: Nonanoyl-KWKKK([Lys-Lys-Trp-Lys-Nonanoyl])KG-OH / II: Nonanoyl-[ξK][ξW][ξK][ξK]K([Lys-Lys-Trp-Lys-Nonanoyl]); amide I:6-II:C),0.77 µM,3.48 µM,–,4.5,0.58 µM,1.48 µM,> 5 µM
CCCCCCCC(=O)N[C@@H](CCCCN)C(=O)N[C@@H](CCCCN)C(=O)N[C@@H](Cc1c[nH]c2ccccc12)C(=O)N[C@@H](CCCCN)C(=O)NCCCC[C@H](NC(=O)[C@H](CCCCN)NC(=O)[C@H](Cc1c[nH]c2ccccc12)NC(=O)[C@H](CCCCN)NC(=O)[C@H](CCCCN)NC(=O)CCCCCCC)C(=O)NCCCC[C@H](NC(=O)[C@H](CCCCNC(=O)[C@H](CCCCN)NC(=O)[C@H](Cc1c[nH]c2ccccc12)NC(=O)[C@H](CCCCN)NC(=O)[C@H](CCCCN)NC(=O)CCCCCCC)NC(=O)[C@H](CCCCN)NC(=O)[C@H](Cc1c[nH]c2ccccc12)NC(=O)[C@H](CCCCN)NC(=O)[C@H](CCCCN)NC(=O)CCCCCCC)C(=O)NCC(=O)O (I: Octanoyl-KKWKK([Lys-Trp-Lys-Lys-Octanoyl])KG-OH / II: Octanoyl-KKWKK([Lys-Trp-Lys-Lys-Octanoyl]); amide I:6-II:C),0.57 µM,8.56 µM,–,15,0.42 µM,0.64 µM,> 5 µM
CCCCCCCCCCCCCCCC(=O)N[C@@H](CCCCN)C(=O)N[C@@H](CCCCN)C(=O)N[C@@H](Cc1c[nH]c2ccccc12)C(=O)N[C@@H](CCCCN)C(=O)NCCCC[C@H](NC(=O)[C@H](CCCCN)NC(=O)[C@H](Cc1c[nH]c2ccccc12)NC(=O)[C@H](CCCCN)NC(=O)[C@H](CCCCN)NC(=O)CCCCCCCCCCCCCCC)C(=O)NCCCC[C@H](NC(=O)[C@H](CCCCNC(=O)[C@H](CCCCN)NC(=O)[C@H](Cc1c[nH]c2ccccc12)NC(=O)[C@H](CCCCN)NC(=O)[C@H](CCCCN)NC(=O)CCCCCCCCCCCCCCC)NC(=O)[C@H](CCCCN)NC(=O)[C@H](Cc1c[nH]c2ccccc12)NC(=O)[C@H](CCCCN)NC(=O)[C@H](CCCCN)NC(=O)CCCCCCCCCCCCCCC)C(=O)NCC(=O)O (I: Palmitoyl-KKWKK([Lys-Trp-Lys-Lys-Palmitoyl])KG-OH / II: Palmitoyl-KKWKK([Lys-Trp-Lys-Lys-Palmitoyl]); amide I:6-II:C),0.1 µM,1.58 µM,–,–,0.14 µM,0.13 µM,> 5 µM
CCCCCCCCCCCCCCCC(=O)N[C@@H](CCCCN)C(=O)N[C@@H](Cc1c[nH]c2ccccc12)C(=O)N[C@@H](CCCCN)C(=O)N[C@@H](CCCCN)C(=O)NCCCC[C@H](NC(=O)[C@H](CCCCN)NC(=O)[C@H](CCCCN)NC(=O)[C@H](Cc1c[nH]c2ccccc12)NC(=O)[C@H](CCCCN)NC(=O)CCCCCCCCCCCCCCC)C(=O)NCCCC[C@H](NC(=O)[C@H](CCCCNC(=O)[C@H](CCCCN)NC(=O)[C@H](CCCCN)NC(=O)[C@H](Cc1c[nH]c2ccccc12)NC(=O)[C@H](CCCCN)NC(=O)CCCCCCCCCCCCCCC)NC(=O)[C@H](CCCCN)NC(=O)[C@H](CCCCN)NC(=O)[C@H](Cc1c[nH]c2ccccc12)NC(=O)[C@H](CCCCN)NC(=O)CCCCCCCCCCCCCCC)C(=O)NCC(=O)O (I: Palmitoyl-KWKKK([Lys-Lys-Trp-Lys-Palmitoyl])KG-OH / II: Palmitoyl-KWKKK([Lys-Lys-Trp-Lys-Palmitoyl]); amide I:6-II:C),0.19 µM,0.67 µM,–,–,0.17 µM,0.17 µM,> 5 µM
NCCCC[C@H](NC(=O)Cc1ccc(-c2ccccc2)cc1)C(=O)N[C@@H](CCCCN)C(=O)N[C@@H](Cc1c[nH]c2ccccc12)C(=O)N[C@@H](CCCCN)C(=O)NCCCC[C@H](NC(=O)[C@H](CCCCN)NC(=O)[C@H](Cc1c[nH]c2ccccc12)NC(=O)[C@H](CCCCN)NC(=O)[C@H](CCCCN)NC(=O)Cc1ccc(-c2ccccc2)cc1)C(=O)NCCCC[C@H](NC(=O)[C@H](CCCCNC(=O)[C@H](CCCCN)NC(=O)[C@H](Cc1c[nH]c2ccccc12)NC(=O)[C@H](CCCCN)NC(=O)[C@H](CCCCN)NC(=O)Cc1ccc(-c2ccccc2)cc1)NC(=O)[C@H](CCCCN)NC(=O)[C@H](Cc1c[nH]c2ccccc12)NC(=O)[C@H](CCCCN)NC(=O)[C@H](CCCCN)NC(=O)Cc1ccc(-c2ccccc2)cc1)C(=O)NCC(=O)O (I: {Phenylacetyl(4-Ph)}-KKWKK([Lys-Trp-Lys-Lys-Phenylacetyl(4-Ph)])KG-OH / II: {Phenylacetyl(4-Ph)}-KKWKK([Lys-Trp-Lys-Lys-Phenylacetyl(4-Ph)]); amide I:6-II:C),0.19 µM,19.3 µM,–,103,0.17 µM,0.2 µM,–
